The values that follow come from ChEMBL document CHEMBL5500375, “Design, synthesis, and evaluation of N1,N3-dialkyldioxonaphthoimidazoliums as antibacterial agents against methicillin-resistant Staphylococcus aureus” (Eur J Med Chem, 2024).

In data set [1] the test system is Staphylococcus aureus. As to the kind of experiment: In vivo antibacterial activity against methicillin-resistant Staphylococcus aureus SA3 infected in dorsal thorax of Drosophila melanogaster strain Oregon R assessed as median survival time of Drosophila at 0.04 to 0.2 mg/ml measured upto 72 hrs. It counts as functional. As to conditions: dose 0.04-0.2 mg/ml.
The subject of data set [2] is Bacillus subtilis. As to the kind of experiment: Antibacterial agents against Bacillus subtilis PS380 assessed as absence of growth measured after 18 hrs by micro-dilution method. In kind it is functional. A general note: In broth dilution the organism is exposed to a series of concentrations in liquid medium.
The subject of data set [3] is Staphylococcus aureus. The data set is described as follows: Antibacterial activity against methicillin-resistant Staphylococcus aureus SA3 assessed as resistance by measuring antibacterial activity after 11 to 20 passages at 0.39 ug/ml by emergence of bacterial resistance assay. It counts as functional, organism-based. As to conditions: dose 0.39 µg/ml.
The test system of data set [4] is Staphylococcus aureus. The data set is described as follows: Bactericidal activity against methicillin-resistant Staphylococcus aureus SA3 assessed as as reduction in colony forming unit at 0.1 to 0.4 ug/ml measured after 2 to 4 hrs by time-kill assay. In kind it is functional, organism-based. As to conditions: dose 0.1-0.4 µg/ml, time 2-4 hrs.
The test system of data set [5] is Staphylococcus aureus. As to the kind of experiment: Anti-biofilim activity against methicillin-sensitive Staphylococcus aureus SA1 assessed decrease in biofilm growth at 1 to 10 times of MIC concentration measured after 12 to 24 hrs incubation. It counts as functional, organism-based. As to conditions: time 12-24 hrs.
For data set [6], the system named is Staphylococcus aureus. The data set is described as follows: Antibacterial agents against c5-resistant mutant of methicillin-resistant Staphylococcus aureus SA3 m3 assessed as absence of growth measured after 18 hrs by micro-dilution method. It counts as functional.
In data set [7] the test system is Staphylococcus aureus. As to the kind of experiment: Antibacterial agents against methicillin-resistant Staphylococcus aureus USA300 assessed as absence of growth at 0.19 ug/ml measured after overnight incubation under anaerobic condition in presence of N-acetylcysteine by micro-dilution method. In kind it is functional, organism-based. The settings on record: dose 0.19 µg/ml.

For data set [8], the system named is Staphylococcus aureus. The data set is described as follows: Antibacterial agents against methicillin-sensitive Staphylococcus aureus Newman assessed as absence of growth measured after 18 hrs by micro-dilution method. In kind it is functional.
Data set [9] has as its system Staphylococcus aureus. The data set is described as follows: Antibacterial agents against methicillin-sensitive Staphylococcus aureus Newman assessed as absence of growth at 0.19 ug/ml measured after overnight incubation under anaerobic condition in presence of N-acetylcysteine by micro-dilution method. It counts as functional, organism-based. As to conditions: dose 0.19 µg/ml.

The subject of data set [10] is Staphylococcus aureus. The data set is described as follows: Antibacterial agents against methicillin-resistant Staphylococcus aureus SA3 assessed as absence of growth measured after 18 hrs by micro-dilution method. In kind it is functional.
The subject of data set [11] is Staphylococcus aureus. As to the kind of experiment: In vivo antibacterial activity against methicillin-resistant Staphylococcus aureus SA3 infected in dorsal thorax of Drosophila melanogaster strain Oregon R assessed as survival time of Drosophila at 0.04 mg/ml measured upto 72 hrs relative to control. It counts as functional, organism-based.
Data set [12] is described as follows: Therapeutic index, ratio of IC50 for HEK293 cells to MIC for […] activity against methicillin-resistant Staphylococcus aureus SA3. In kind it is toxicity. As to conditions: human, read-out: TI.
Data set [13] deals with Bacillus subtilis. As to the kind of experiment: Antibacterial agents against Bacillus subtilis PS380 assessed as absence of growth at 0.19 ug/ml measured after overnight incubation under anaerobic condition in presence of N-acetylcysteine by micro-dilution method. It counts as functional, organism-based. As to conditions: dose 0.19 µg/ml.
For data set [14], the system named is Staphylococcus aureus. As to the kind of experiment: Antibacterial agents against c5-resistant mutant of methicillin-resistant Staphylococcus aureus SA3 m2 assessed as absence of growth measured after 18 hrs by micro-dilution method. In kind it is functional.
Data set [15] can be described thus: Metabolic stability in human liver microsomes assessed as intrinsic clearance at 2 uM preincubated for 5 mins followed by NADPH addition and measured for 35 mins by LC/MS analysis. It counts as ADME, Microsome. As to conditions: read-out: CLH.
Data set [16] concerns Staphylococcus aureus. As to the kind of experiment: Antibacterial agents against c5-resistant mutant of methicillin-resistant Staphylococcus aureus SA3 m4 assessed as absence of growth measured after 18 hrs by micro-dilution method. It counts as functional.
The test system of data set [17] is Staphylococcus aureus. As to the kind of experiment: Anti-biofilim activity against methicillin-resistant Staphylococcus aureus USA300 assessed decrease in biofilm growth at 1 to 10 times of MIC concentration measured after 12 to 24 hrs incubation. It counts as functional, organism-based. As to conditions: time 12-24 hrs.
For data set [18], the system named is Pseudomonas aeruginosa. The data set is described as follows: Antibacterial agents against gram negative Pseudomonas aeruginosa PA14 assessed as reduction in colony forming unit at 0.78 ug/ml measured upto 10 hrs in presence of 0.2 ug/ml Polymyxin B by LB agar medium method. It counts as functional. As to conditions: dose 0.78 µg/ml.
For data set [19], the system named is Staphylococcus aureus. As to the kind of experiment: Antibacterial agents against c5-resistant mutant of methicillin-resistant Staphylococcus aureus SA3 m3 assessed as absence of growth at 0.19 ug/ml measured after overnight incubation under anaerobic condition in presence of N-acetylcysteine by micro-dilution method. It counts as functional, organism-based. The settings on record: dose 0.19 µg/ml.

For data set [20], the system named is Pseudomonas aeruginosa. As to the kind of experiment: Antibacterial agents against gram negative Pseudomonas aeruginosa PA14 assessed as reduction in colony forming unit at 0.78 ug/ml measured upto 10 hrs by LB agar medium method. It counts as functional, organism-based. The settings on record: dose 0.78 µg/ml.
Data set [21] has as its system Pseudomonas aeruginosa. As to the kind of experiment: Antibacterial agents against gram negative Pseudomonas aeruginosa PA14 assessed as reduction in colony forming unit at 0.78 ug/ml measured upto 10 hrs in presence of 0.05 ug/ml Polymyxin B by LB agar medium method. In kind it is functional, organism-based. The settings on record: dose 0.78 µg/ml.

Activity calls are given as the source filed them. No cut-off for these calls is given here. Bounds are passed on as bounds.

What is called MIC is the lowest concentration that inhibits growth of the organism. With `CCCCCCCCn1c2c([n+](Cc3ccccc3)c1C)C(=O)c1ccccc1C2=O.[Br-]`, the Time in the data set with Staphylococcus aureus [1] was 56 h. Moreover, the MIC with Bacillus subtilis [2] was 0.39 µg/mL; in the data set on Staphylococcus aureus [6] it was 6.25 µg/mL; in the data set on Staphylococcus aureus [8], 0.19 µg/mL; in the data set on Staphylococcus aureus [10], 0.39 µg/mL; in the data set on Staphylococcus aureus [14], 6.25 µg/mL; in the data set on Staphylococcus aureus [16], 6.25 µg/mL. Also, the outcome in the data set with Staphylococcus aureus [3], in the data set on Staphylococcus aureus [4], in the data set with Staphylococcus aureus [7], with Staphylococcus aureus [9], in the data set on Staphylococcus aureus [19] and in the data set with Pseudomonas aeruginosa [20] was inactive. In addition, the outcome with Pseudomonas aeruginosa [21] was inactive. For the same compound, the outcome in the data set on Staphylococcus aureus [5], in the data set with Staphylococcus aureus [11], with Bacillus subtilis [13] and in the data set on Staphylococcus aureus [17] was Active. The selectivity ratio in data set [12] turned out to be 0.8. Moreover, the CLint scaled at 2 µM in data set [15] was found to be 39 mL/min/kg. Also, the Activity in the data set on Pseudomonas aeruginosa [18] was above 4 log10CFU/ml.
